What was measured:
TrkB = target: T1, TrkB (Homo sapiens, UniProt Q16620); experiment: TrkB tyrosine kinase inhibition, recombinant enzyme, polyGluTyr phosphorylation (33P-ATP filter assay); format: biochemical; settings: kinase domain of human TrkB (amino acids 526-838), His-fusion; 0.1 mg/ml PGT, 30 uM ATP, 1 hour at 30° C.
T1 construct: The kinase domain of the human TrkB receptor (amino acids 526-838); His; purchased Invitrogen; host or cells: insect cells
Experimental: The ability of compounds of the invention to inhibit tyrosine kinase activity of TrkB may be measured using a recombinant enzyme in an assay that measures the ability of compounds to inhibit the phosphorylation of the exogenous substrate, polyGluTyr (PGT, 4:1). The kinase domain of the human TrkB receptor (amino acids 526-838) is expressed in insect cells as a histidine (His)-fusion protein and is commercially available from Invitrogen™. The enzyme assay is performed in a 96-well plate. Test compounds are first dissolved in dimethylsulfoxide (DMSO) and then serially-diluted in a 96-well plate. The serially-diluted compounds are transferred to the 96-well assay plate so that the final concentration of DMSO in the enzyme assay is 1.64%. All assay components are diluted in phosphorylation buffer (20 mm MOPS, 10 mM MgCl2, 1 mM EDTA, 0.015% Brij-35, 0.1 mg/ml BSA, 0.0025% Beta-Mercaptoethanol). The recombinant enzyme is added to the assay plate containing test compound and the reaction is initiated with a substrate solution containing a final concentration of 0.1 mg/ml PGT, 30 uM ATP, and 0.008 mCi/ml ^33P-gammaATP (3000 Ci/mmol)(Perkin Elmer™) After a 1 hour incubation at 30° C., the reaction is terminated with 10% TCA and incubated at 4° C. for 1 hour. The reaction is filtered onto a Unifilter® GF/C™ filter plate that has been presoaked with 0.1 M NaPyrophosphate. Microscint-20 is then added to the dried filter plate and the captured ^33P-phosphorylated PGT is quantitated on a microscintillation plate counter (TopCount·NXT™).

TrkA = target: T2, TrkA (Homo sapiens, UniProt P04629); experiment: TrkA tyrosine kinase inhibition, recombinant enzyme, polyGluTyr phosphorylation (33P-ATP filter assay); format: biochemical; settings: kinase domain of human TrkA, His-fusion; 0.1 mg/ml PGT, 30 uM ATP, 1 hour at 30° C.
T2 construct: The kinase domain of the human TrkA receptor is expressed in Sf9 insect cells as a histidine (His)-fusion protein; His; made in house; host or cells: Sf9 insect cells (baculovirus)
Source text: The ability of compounds of the invention to inhibit tyrosine kinase activity of TrkA may be measured using a recombinant enzyme in an assay that measures the ability of compounds to inhibit the phosphorylation of the exogenous substrate, polyGluTyr (PGT, 4:1). The kinase domain of the human TrkA receptor is expressed in Sf9 insect cells as a histidine (His)-fusion protein using a baculovirus expression system. The protein is purified from the lysates of these cells using an Ni-NTA affinity column. After the recombinant enzyme is purified, it is activated by incubation with cold ATP. The enzyme assay is performed in a 96-well plate. Test compounds are first dissolved in dimethylsulfoxide (DMSO) and then serially-diluted in a 96-well plate. The serially-diluted compounds are transferred to the 96-well assay plate so that the final concentration of DMSO in the enzyme assay is 1.64%. All assay components are diluted in phosphorylation buffer (20 mm MOPS, 10 mM MgCl2, 1 mM EDTA, 0.015% Brij-35, 0.1 mg/ml BSA, 0.0025% Beta-Mercaptoethanol). The recombinant enzyme is added to the assay plate containing test compound and the reaction is initiated with a substrate solution containing a final concentration of 0.1 mg/ml PGT, 30 uM ATP, and 0.008 mCi/ml ^33P-gammaATP (3000 Ci/mmol). After a 1 hour incubation at 30° C., the reaction is terminated with 10% TCA and incubated at 4° C. for 1 hour. The reaction is filtered onto a Unifilter® GF/C™ filter plate that has been presoaked with 0.1 M NaPyrophosphate. Microscint-20 is then added to the dried filter plate and the captured ^33P-phosphorylated PGT is quantitated on a microscintillation plate counter (TopCount·NXT™).

T2 sequence (P04629 510-781 limits assumed): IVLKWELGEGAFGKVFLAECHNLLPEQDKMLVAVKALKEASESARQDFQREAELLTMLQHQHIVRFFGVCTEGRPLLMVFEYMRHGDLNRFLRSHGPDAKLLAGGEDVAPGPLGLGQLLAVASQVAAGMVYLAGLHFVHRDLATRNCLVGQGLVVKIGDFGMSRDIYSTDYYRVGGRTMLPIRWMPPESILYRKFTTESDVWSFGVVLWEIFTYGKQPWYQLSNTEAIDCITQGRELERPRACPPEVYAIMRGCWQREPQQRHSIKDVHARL
T1 sequence (Q16620 510-822): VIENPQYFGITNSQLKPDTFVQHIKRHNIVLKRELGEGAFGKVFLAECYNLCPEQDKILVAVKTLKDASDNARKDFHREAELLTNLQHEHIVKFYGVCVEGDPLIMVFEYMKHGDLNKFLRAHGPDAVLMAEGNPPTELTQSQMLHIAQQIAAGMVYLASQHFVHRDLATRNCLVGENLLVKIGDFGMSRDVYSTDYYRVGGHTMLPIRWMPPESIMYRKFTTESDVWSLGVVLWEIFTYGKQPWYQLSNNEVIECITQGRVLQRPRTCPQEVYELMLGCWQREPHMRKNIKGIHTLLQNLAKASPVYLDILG

SMILES	IC50 (TrkB) [nM]	IC50 (TrkA) [nM]
CC(C)c1cc(C(=O)c2cccc(NC(=O)Nc3ccc(Cl)cc3Cl)c2)c2c(N)ncnn12 [Example 1, 1-{3-[(4-amino-7-isopropylpyrrolo [2,1-f][1,2,4]triazin-5-yl)carbonyl]phenyl}-3-(2,4-dichlorophenyl)urea]	1	
CC(C)c1cc(C(=O)c2cccc(NC(=O)Nc3ccccc3)c2)c2c(N)ncnn12 [Example 9, 1-{3-[(4-amino-7-isopropyl-pyrrolo[2,1-f][1,2,4]triazin-5-yl)carbonyl]phenyl}-3-phenylurea]	< 1	2
CC(C)c1cc(C(=O)c2cccc(NC(=O)Nc3ccc(OCc4ccccc4)cc3)c2)c2c(N)ncnn12 [Example 33, 1-{3-[(4-amino-7-isopropyl-pyrrolo[2,1-f][1,2,4]triazin-5-yl)carbonyl]phenyl}-3-[4-(benzyloxy)phenyl]urea]	1	2
CC(C)c1cc(C(=O)c2cccc(NC(=O)NCC3CCCCC3)c2)c2c(N)ncnn12 [Example 37, 1-{3-[(4-amino-7-isopropyl-pyrrolo[2,1-f][1,2,4]triazin-5-yl)carbonyl]phenyl}-3-(cyclohexylmethyl)urea]	36	17
CC(C)c1cc(C(=O)c2cccc(NC(=O)Nc3ccc4ccccc4c3)c2)c2c(N)ncnn12 [Example 46, 1-{3-[(4-amino-7-isopropyl-pyrrolo[2,1-f][1,2,4]triazin-5-yl)carbonyl]phenyl}-3-(2-naphthyl)urea]	1	< 1

Other lines, results leading:

IC50 (TrkB) [nM]	IC50 (TrkA) [nM]	SMILES
8	21	CC(C)c1cc(C(=O)c2cccc(NC(=O)NCCCc3ccccc3)c2)c2c(N)ncnn12 [Example 61, 1-{3-[(4-amino-7-isopropyl-pyrrolo[2,1-f][1,2,4]triazin-5-yl)carbonyl]phenyl}-3-(3-phenylpropyl)urea]
15	9	CC(C)c1cc(C(=O)c2cccc(NC(=O)Nc3ccncc3)c2)c2c(N)ncnn12 [Example 63, 1-{3-[(4-amino-7-isopropyl-pyrrolo[2,1-f][1,2,4]triazin-5-yl)carbonyl]phenyl}-3-pyridin-4-ylurea]
1	3	CN(C)CCCc1cc(C(=O)c2cccc(NC(=O)Nc3ccc(Cl)cc3Cl)c2)c2c(N)ncnn12 [Example 67, 1-[3-({4-amino-7-[3-(dimethylamino)propyl]Pyrrolo[2,1-f][1,2,4]triazin-5-yl}carbonyl)phenyl]-3-(2,4-dichlorophenyl)urea]
